ChEMBL document CHEMBL5143755, “Restoration of Motor Function Post-Neurological Injury Using Serotonergic Agonist” (ACS Med Chem Lett, 2022)

molecular target: 5-hydroxytryptamine receptor 2A (Homo sapiens, UniProt P28223); test: Agonist activity at human 5-HT2A receptor assessed as activation of calcium mobilization incubated for 2 mins by Calcium-6 dye based FLIPR assay; format: functional
Sequence (P28223 whole entry): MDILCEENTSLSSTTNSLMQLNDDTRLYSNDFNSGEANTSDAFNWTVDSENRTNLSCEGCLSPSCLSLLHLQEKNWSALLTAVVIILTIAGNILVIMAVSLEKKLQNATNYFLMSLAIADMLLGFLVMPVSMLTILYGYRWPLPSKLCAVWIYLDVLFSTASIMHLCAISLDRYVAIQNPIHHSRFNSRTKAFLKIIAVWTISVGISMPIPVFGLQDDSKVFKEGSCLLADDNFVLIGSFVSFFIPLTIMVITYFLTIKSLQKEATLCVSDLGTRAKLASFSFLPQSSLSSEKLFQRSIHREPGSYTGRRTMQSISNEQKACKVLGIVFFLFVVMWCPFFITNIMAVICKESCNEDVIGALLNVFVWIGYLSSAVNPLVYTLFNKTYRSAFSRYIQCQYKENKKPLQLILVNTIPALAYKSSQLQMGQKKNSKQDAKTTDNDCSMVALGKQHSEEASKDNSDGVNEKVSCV

Q: Which EC50 does the source give for `[2H]C1([2H])CC(c2c[nH]c3cccc(O)c23)C([2H])([2H])N1` (stereo not given) here?
A: > 10 µM

Q: Which EC50 does the source give for `[2H]C([2H])N1CCC(c2c[nH]c3cccc(O)c23)C1` (stereo not given) here?
A: < 1 µM

Q: `[2H]C1([2H])CC(c2c[nH]c3cccc(OCc4ccccc4)c23)C([2H])([2H])N1C` (stereo not given) was tested. Which EC50 did it give?
A: > 10 µM

Q: For `[2H]C1([2H])CC(c2c[nH]c3cccc(OCc4ccccc4)c23)C([2H])([2H])N1` (stereo not given), which EC50 is on record?
A: < 1 µM

Q: How did the EC50 turn out when `[2H]C1([2H])CC(c2c[nH]c3cccc(O)c23)C([2H])([2H])N1C` (stereo not given) was run?
A: < 1 µM
